{"source": "patent US10626112B2", "about": "“Heterocyclic sulfonamide derivative and medicine comprising same” (EA PHARMA CO., LTD., priority 2014, dated 2020)", "key": {"human TRPA1 [1]": {"molecular_target": "T1, human TRPA1 (Homo sapiens (Human), UniProt O75762)", "T1 sequence (O75762 whole entry)": "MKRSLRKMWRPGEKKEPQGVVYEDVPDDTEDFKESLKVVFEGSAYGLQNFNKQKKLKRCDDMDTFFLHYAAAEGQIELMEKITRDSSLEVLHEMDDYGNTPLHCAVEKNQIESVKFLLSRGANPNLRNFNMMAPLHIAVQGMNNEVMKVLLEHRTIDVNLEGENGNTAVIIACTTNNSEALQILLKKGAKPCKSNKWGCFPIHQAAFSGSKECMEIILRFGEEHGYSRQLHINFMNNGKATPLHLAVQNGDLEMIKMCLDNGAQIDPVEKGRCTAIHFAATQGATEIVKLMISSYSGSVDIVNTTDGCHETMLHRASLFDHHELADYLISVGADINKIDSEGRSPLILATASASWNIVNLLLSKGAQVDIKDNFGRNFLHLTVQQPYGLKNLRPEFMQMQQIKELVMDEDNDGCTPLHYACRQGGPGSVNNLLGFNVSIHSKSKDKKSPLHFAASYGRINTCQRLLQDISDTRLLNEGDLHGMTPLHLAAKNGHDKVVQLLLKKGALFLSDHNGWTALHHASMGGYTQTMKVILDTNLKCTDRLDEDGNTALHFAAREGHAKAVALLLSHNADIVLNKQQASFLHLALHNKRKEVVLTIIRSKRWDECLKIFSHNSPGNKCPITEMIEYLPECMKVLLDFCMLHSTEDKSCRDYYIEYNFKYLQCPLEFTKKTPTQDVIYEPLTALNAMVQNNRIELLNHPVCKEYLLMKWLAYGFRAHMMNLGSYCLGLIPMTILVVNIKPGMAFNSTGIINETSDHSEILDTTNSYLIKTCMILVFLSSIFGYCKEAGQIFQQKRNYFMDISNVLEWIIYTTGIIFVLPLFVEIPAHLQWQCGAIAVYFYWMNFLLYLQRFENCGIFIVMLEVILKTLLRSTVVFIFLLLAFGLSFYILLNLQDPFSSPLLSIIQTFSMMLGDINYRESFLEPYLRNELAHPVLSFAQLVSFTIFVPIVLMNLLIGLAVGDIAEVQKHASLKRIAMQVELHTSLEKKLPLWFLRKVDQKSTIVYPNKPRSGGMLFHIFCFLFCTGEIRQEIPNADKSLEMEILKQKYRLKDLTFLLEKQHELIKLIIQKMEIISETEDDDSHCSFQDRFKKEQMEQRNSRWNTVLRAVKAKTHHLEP", "experiment": "Measurement of TRPA1 antagonist activity (2): as (1), different lot of human TRPA1 expression plasmid", "assay_type": "cell-based", "settings": "293T cells transfected with human TRPA1, allylisothiocyanate 20 μM stimulation, calcium fluorescence, read-out: hTRPA1 IC50", "protocol": "Human embryonic kidney-derived 293T cells were cultured in Dulbecco's Modified Eagle Medium containing 10% fetal bovine serum, 10 unit penicillin, and 10 μg streptomycin, plated on a petri dish having a diameter of 10 cm at 3×10^6 cells, and cultured for 24 hr in a CO2 incubator. A reduced serum medium (manufactured by Invitrogen, trade name: OPTI-MEM, 600 μL), a gene transfer reagent (manufactured by Mirus Bio, trade name: Mirus TransIT-293, 18 μL), and human TRPA1 expression plasmid (6 μg) were mixed, the total amount of the mixture was added to the cells on the petri dish to allow for gene transfer. The cells were recovered about for 8 hr later, plated on a poly-D-lysine coated 384 well black/clear bottom plate at 12,000 cells/well, and cultured overnight.\nMeasurement of Intracellular Calcium Increase\nThe 384 well plate was recovered, and the medium was removed. A calcium-bonded fluorescent indicator (manufactured by Molecular Device, trade name: Calcium4 Assay Kit, 38 μL) dissolved in assay buffer (1×HBSS, 20 mM HEPES, pH 7.2) was added, and the cells were stained in a CO2 incubator for 1 hr. The cells were taken out at room temperature, stood for not less than 15 min, a test substance (10 μL) was added by a platereader FDSS7000 (Hamamatsu Photonics K.K.) equipped with a 384ch dispenser. After 10 min, allylisothiocyanate (12 μL) was further added at a final concentration of 20 μM, and changes in the relative fluorescence intensity after addition of allylisothiocyanate were measured for 5 min.\nTest Substance Preparation\nThe test substance was dissolved in dimethyl sulfoxide and serially diluted with an assay buffer containing 0.1% bovine serum albumin (1×HBSS, 20 mM HEPES, pH 7.2) to a 4.8-fold concentration of the evaluation concentration. Allylisothiocyanate, which is a known TRPA1 activator, was dissolved in dimethyl sulfoxide to 100 mM, and further diluted 5-fold (100 μM) of the final concentration, like the test substance.\nCalculation of Antagonist Activity\nUnder the test substance-free conditions, the maximum variation range of the fluorescence intensity before and after allylisothiocyanate stimulation was defined to be 100% activity rate, and the variation range before and after buffer stimulation was defined as 0% activity rate. The activity rate on addition of the test substance was determined, and the numerical value obtained by subtracting the activity rate from 100 was defined to be an inhibitory rate. IC50, which is the concentration of the test substance necessary for reaching the 50% inhibitory rate, was calculated from the sigmoid approximate curve by a spreadsheet software Excel-Fit.\nMeasurement of TRPA1 Antagonist Activity (2)\nBy a method similar to that in Experimental Example 1-1 except that the lot of human […] expression plasmid is different, the TRPA1 antagonist activity of the test substance was measured."}, "human TRPA1 [2]": {"molecular_target": "T1, human TRPA1", "experiment": "Measurement of TRPA1 antagonist activity (1): intracellular calcium increase", "assay_type": "cell-based", "settings": "293T cells transfected with human TRPA1 expression plasmid; allylisothiocyanate 20 μM stimulation; intracellular calcium fluorescence; read-out: hTRPA1 IC50", "outline": "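HEK293T cells transiently transfected with full-length human TRPA1, loaded with Calcium4 dye in HBSS/20 mM HEPES pH 7.2. Test compound preincubated 10 min, then allylisothiocyanate added at 20 μM final and fluorescence change followed for 5 min. IC50 from sigmoid fit of percent inhibition relative to agonist and buffer controls.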"}}, "data": [{"smiles": "CC(C)N(CC(=O)NCc1cc(-c2ccc(C(F)(F)F)cn2)ccn1)S(=O)(=O)c1cc2cc(F)ccc2o1", "note": "[Example 348, 2-[(5-fluorobenzofuran-2-yl)sulfonyl-isopropyl-amino]-N-[[4-[5-(trifluoromethyl)-2-pyridyl]-2-pyridyl]methyl]acetamide]", "values": [{"measurement": "IC50", "setting": "human TRPA1 [1]", "value": 16, "unit": "nM"}]}, {"smiles": "CCN([C@@H](C)C(=O)NCc1cc(-c2ccc(C(F)(F)F)cn2)ccn1)S(=O)(=O)c1cc2cc(F)ccc2o1", "note": "[Example 416, (2S)-2-[ethyl-(5-fluorobenzofuran-2-yl)sulfonyl-amino]-N-[[4-[5-(trifluoromethyl)-2-pyridyl]-2-pyridyl]methyl]propanamide]", "values": [{"measurement": "IC50", "setting": "human TRPA1 [1]", "value": 4.2, "unit": "nM"}]}, {"smiles": "O=C(NCc1cc(-c2cnc(C(F)(F)F)cn2)ccn1)[C@@H]1CCN1S(=O)(=O)c1cc2cc(F)ccc2o1", "note": "[Example 393, (2S)-1-(5-fluorobenzofuran-2-yl)sulfonyl-N-[[4-[5-(trifluoromethyl)pyrazin-2-yl]-2-pyridyl]methyl]azetidine-2-carboxamide]", "values": [{"measurement": "IC50", "setting": "human TRPA1 [1]", "value": 9.1, "unit": "nM"}]}, {"smiles": "C[C@H](NS(=O)(=O)c1cc2cnccc2o1)C(=O)NCc1ccnc(-c2ccc(C(F)(F)F)cc2)c1", "note": "[Example 366, (2S)-2-(furo[3,2-c]pyridin-2-ylsulfonylamino)-N-[[2-[4-(trifluoromethyl)phenyl]-4-pyridyl]methyl]propanamide]", "values": [{"measurement": "IC50", "setting": "human TRPA1 [1]", "value": 190, "unit": "nM"}]}, {"smiles": "CN(C)c1nc(CNC(=O)[C@@H]2CCN2S(=O)(=O)c2cc3cc(F)ccc3o2)cc(-c2ccc(C(F)(F)F)cc2)n1", "note": "[Example 379, (2S)-N-[[2-(dimethylamino)-6-[4-(trifluoromethyl)phenyl]-pyrimidin-4-yl]methyl]-1-(5-fluorobenzofuran-2-yl)sulfonyl-azetidine-2-carboxamide]", "values": [{"measurement": "IC50", "setting": "human TRPA1 [1]", "value": 19, "unit": "nM"}]}, {"smiles": "O=C(NCc1cc(-c2ccc(C(F)F)cc2)ccn1)[C@@H]1CCCN1S(=O)(=O)c1cc2ccccc2o1", "note": "[Example 333, (2S)-1-(benzofuran-2-ylsulfonyl)-N-[[4-[4-(difluoromethyl)phenyl]-2-pyridyl]methyl]pyrrolidine-2-carboxamide]", "values": [{"measurement": "IC50", "setting": "human TRPA1 [1]", "value": 21, "unit": "nM"}]}, {"smiles": "CC(C)N(CC(=O)NCc1cc(-c2cnc(C(F)(F)F)nc2)ncn1)S(=O)(=O)c1cc2cc(F)ccc2o1", "note": "[Example 360, 2-[(5-fluorobenzofuran-2-yl)sulfonyl-isopropyl-amino]-N-[[6-[2-(trifluoromethyl)pyrimidin-5-yl]pyrimidin-4-yl]methyl]acetamide]", "values": [{"measurement": "IC50", "setting": "human TRPA1 [1]", "value": 10, "unit": "nM"}]}, {"smiles": "C#CCN([C@@H](C)C(=O)NCc1cc(-c2ccc(C(F)(F)F)cn2)ccn1)S(=O)(=O)c1cc2cc(F)ccc2o1", "note": "[Example 418, (2S)-2-[(5-fluorobenzofuran-2-yl)sulfonyl-prop-2-ynylamino]-N-[[4-[5-(trifluoromethyl)-2-pyridyl]-2-pyridyl]methyl]propanamide]", "values": [{"measurement": "IC50", "setting": "human TRPA1 [1]", "value": 11, "unit": "nM"}]}, {"smiles": "O=C(NCc1cc(-c2cnc(C(F)(F)F)nc2)ncn1)[C@@H]1CCN1S(=O)(=O)c1cc2cc(F)ccc2o1", "note": "[Example 387, (2S)-1-(5-fluorobenzofuran-2-yl)sulfonyl-N-[[6-[2-(trifluoromethyl)pyrimidin-5-yl]pyrimidin-4-yl]methyl]azetidine-2-carboxamide]", "values": [{"measurement": "IC50", "setting": "human TRPA1 [1]", "value": 55, "unit": "nM"}]}, {"smiles": "O=C(NCc1cc(-c2ccc(C(F)(F)F)cc2)nc(N2CCC2)n1)[C@@H]1CCCN1S(=O)(=O)c1cc2ccccc2o1", "note": "[Example 328, (2S)-N-[[2-(azetidin-1-yl)-6-[4-(trifluoromethyl)phenyl]pyrimidin-4-yl]methyl]-1-(benzofuran-2-ylsulfonyl)pyrrolidine-2-carboxamide]", "values": [{"measurement": "IC50", "setting": "human TRPA1 [1]", "value": 16, "unit": "nM"}]}, {"smiles": "O=C(NCc1cc(-c2ccc(C(F)(F)F)cc2)ncn1)[C@@H]1CCN1S(=O)(=O)c1cc2ccccc2o1", "note": "[Example 386, (2S)-1-(benzofuran-2-ylsulfonyl)-N-[[6-[4-(trifluoromethyl)phenyl]-pyrimidin-4-yl]methyl]azetidine-2-carboxamide]", "values": [{"measurement": "IC50", "setting": "human TRPA1 [1]", "value": 6.6, "unit": "nM"}]}, {"smiles": "O=C(NCc1cccc(-c2ccc(N3CCOCC3)nc2)c1)[C@@H]1CCCN1S(=O)(=O)c1cc2cc(F)ccc2o1", "note": "[Example 161, (2S)-1-(5-fluorobenzofuran-2-yl)sulfonyl-N-[[3-(6-morpholino-3-pyridyl)phenyl]methyl]-pyrrolidine-2-carboxamide]", "values": [{"measurement": "IC50", "setting": "human TRPA1 [2]", "value": 27, "unit": "nM"}]}, {"smiles": "O=C(NCc1ccc(OC(F)(F)F)cc1)[C@@H]1CCCN1S(=O)(=O)c1cc2cc(F)ccc2o1", "note": "[Example 66, (2S)-1-(5-fluorobenzofuran-2-yl)sulfonyl-N-[[4-(trifluoromethoxy)phenyl]methyl]-pyrrolidine-2-carboxamide]", "values": [{"measurement": "IC50", "setting": "human TRPA1 [2]", "value": 21, "unit": "nM"}]}, {"smiles": "CN(C)c1ncc(-c2ccc(F)c(CNC(=O)[C@@H]3CCCN3S(=O)(=O)c3cc4ccccc4o3)c2)cn1", "note": "[Example 174, (2S)-1-(benzofuran-2-ylsulfonyl)-N-[[5-[2-(dimethylamino)pyrimidin-5-yl]-2-fluoro-phenyl]methyl]pyrrolidine-2-carboxamide]", "values": [{"measurement": "IC50", "setting": "human TRPA1 [2]", "value": 29, "unit": "nM"}]}, {"smiles": "O=C(NCc1ccnc(-c2ccc(F)cc2O)c1)[C@@H]1CCCN1S(=O)(=O)c1cc2ccccc2o1", "note": "[Example 121, (2S)-1-(benzofuran-2-ylsulfonyl)-N-[[2-(4-fluoro-2-hydroxy-phenyl)-4-pyridyl]methyl]pyrrolidine-2-carboxamide]", "values": [{"measurement": "IC50", "setting": "human TRPA1 [2]", "value": 32, "unit": "nM"}]}, {"smiles": "C[C@H](NS(=O)(=O)c1cc2ccccc2o1)C(=O)NCc1cc(-c2ccc(OC(F)(F)F)cc2)ncn1", "note": "[Example 231, (2S)-2-(benzofuran-2-ylsulfonylamino)-N-[[6-[4-(trifluoromethoxy)phenyl]-pyrimidin-4-yl]methyl]propanamide]", "values": [{"measurement": "IC50", "setting": "human TRPA1 [2]", "value": 14, "unit": "nM"}]}, {"smiles": "N#Cc1cccc(-c2ccc(CNC(=O)[C@@H]3CCCN3S(=O)(=O)c3cc4ccccc4o3)cc2)c1", "note": "[Example 171, (2S)-1-(benzofuran-2-ylsulfonyl)-N-[[4-(3-cyanophenyl)phenyl]methyl]-pyrrolidine-2-carboxamide]", "values": [{"measurement": "IC50", "setting": "human TRPA1 [2]", "value": 510, "unit": "nM"}]}, {"smiles": "C[C@H](NS(=O)(=O)c1cc2cc(F)ccc2o1)C(=O)NCc1cc(-c2ccc(C(F)(F)F)cc2)cnn1", "note": "[Example 250, (2S)-2-[(5-fluorobenzofuran-2-yl)sulfonylamino]-N-[[5-[4-(trifluoromethyl)phenyl]-pyridazin-3-yl]methyl]propanamide]", "values": [{"measurement": "IC50", "setting": "human TRPA1 [2]", "value": 72, "unit": "nM"}]}, {"smiles": "C[C@H](NS(=O)(=O)c1cc2cc(F)ccc2o1)C(=O)NCc1cc(-c2ccc(C(F)(F)F)cn2)ccn1", "note": "[Example 240, (2S)-2-[(5-fluorobenzofuran-2-yl)sulfonylamino]-N-[[4-[5-(trifluoromethyl)-2-pyridyl]-2-pyridyl]methyl]propanamide]", "values": [{"measurement": "IC50", "setting": "human TRPA1 [2]", "value": 14, "unit": "nM"}]}, {"smiles": "O=C(NCc1cc(-c2ccc(C(F)(F)F)cc2)ncn1)[C@@H]1CCCN1S(=O)(=O)c1cc2ccccc2o1", "note": "[Example 84, (2S)-1-(benzofuran-2-ylsulfonyl)-N-[[6-[4-(trifluoromethyl)phenyl]pyrimidin-4-yl]methyl]pyrrolidine-2-carboxamide]", "values": [{"measurement": "IC50", "setting": "human TRPA1 [2]", "value": 1.2, "unit": "nM"}]}, {"smiles": "O=C(NCc1cccc(-c2ccc(C(F)(F)F)nc2)c1)[C@@H]1CCN1S(=O)(=O)c1cc2cc(F)ccc2o1", "note": "[Example 100, (2S)-1-(5-fluorobenzofuran-2-yl)sulfonyl-N-[[3-[6-(trifluoromethyl)-3-pyridyl]phenyl]methyl]azetidine-2-carboxamide]", "values": [{"measurement": "IC50", "setting": "human TRPA1 [2]", "value": 1.6, "unit": "nM"}]}, {"smiles": "C[C@H](NS(=O)(=O)c1cc2cc(F)ccc2o1)C(=O)NCc1ccnc(-c2ccc(C(F)(F)F)nc2)c1", "note": "[Example 236, (2S)-2-[(5-fluorobenzofuran-2-yl)sulfonylamino]-N-[[2-[6-(trifluoromethyl)-3-pyridyl]-4-pyridyl]methyl]propanamide]", "values": [{"measurement": "IC50", "setting": "human TRPA1 [2]", "value": 31, "unit": "nM"}]}, {"smiles": "N#Cc1cncc(-c2cccc(CNC(=O)[C@@H]3CCCN3S(=O)(=O)c3cc4cc(F)ccc4o3)c2)c1", "note": "[Example 163, (2S)-N-[[3-(5-cyano-3-pyridyl)phenyl]methyl]-1-(5-fluorobenzofuran-2-yl)sulfonyl-pyrrolidine-2-carboxamide]", "values": [{"measurement": "IC50", "setting": "human TRPA1 [2]", "value": 31, "unit": "nM"}]}, {"smiles": "C[C@H](NS(=O)(=O)c1cc2cc(F)ccc2o1)C(=O)NCc1cc(OC(F)(F)F)ccc1F", "note": "[Example 73, (2S)-2-[(5-fluorobenzofuran-2-yl)sulfonylamino]-N-[[2-fluoro-5-(trifluoromethoxy)phenyl]methyl]-propanamide]", "values": [{"measurement": "IC50", "setting": "human TRPA1 [2]", "value": 160, "unit": "nM"}]}]}
